Experimental data: publication PMC3223730, “A nuclear magnetic resonance based approach to accurate functional annotation of putative enzymes in the methanogen Methanosarcina acetivorans” (BMC Genomics, 2011)
pKd: −log10 of the molar value.

What was measured:
[1] = molecular target: T1, MA3706 (Methanosarcina acetivorans, UniProt Q8TJS1); experiment: isothermal titration calorimetry; assay type: binding; details: read-out: dissociation constant
T1 construct: gene MA_3706; removal not described), expressed in E. coli BL21(DE3) Rosetta, Ni-NTA purified

[2] = molecular target: T2, MA4265 (Methanosarcina acetivorans, UniProt Q8TI91); experiment: waterLOGSY 1H NMR; assay type: binding; details: 300 μM ligand, 30 μM protein; 50 mM sodium phosphate, 100 mM NaCl, pH 7.0; 5 or 25 °C
T2 construct: gene MA_4265; removal not described), expressed in E. coli at 25°C, Ni-NTA purified
T2 sequence (Q8TI91 1-342): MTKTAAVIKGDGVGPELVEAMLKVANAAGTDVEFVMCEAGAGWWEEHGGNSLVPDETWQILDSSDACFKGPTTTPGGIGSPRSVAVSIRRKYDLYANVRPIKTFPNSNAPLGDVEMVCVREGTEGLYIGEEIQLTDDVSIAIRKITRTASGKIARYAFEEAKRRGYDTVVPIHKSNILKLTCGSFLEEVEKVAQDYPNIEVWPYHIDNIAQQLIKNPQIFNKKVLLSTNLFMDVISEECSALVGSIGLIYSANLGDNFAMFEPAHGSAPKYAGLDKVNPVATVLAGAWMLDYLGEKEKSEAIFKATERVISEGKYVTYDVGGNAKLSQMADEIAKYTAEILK

T1 sequence (Q8TJS1 whole entry): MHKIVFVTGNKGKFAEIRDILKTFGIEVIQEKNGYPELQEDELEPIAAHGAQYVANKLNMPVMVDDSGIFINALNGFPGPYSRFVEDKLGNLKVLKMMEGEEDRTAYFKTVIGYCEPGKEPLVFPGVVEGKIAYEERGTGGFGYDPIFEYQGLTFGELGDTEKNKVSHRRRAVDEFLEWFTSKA

pKd [1]	SMILES	waterLOGSY 1H NMR [2]
5.11	O=P(O)(O)OP(=O)(O)OP(=O)(O)OC[C@H]1O[C@@H](n2cnc3c(O)ncnc32)[C@H](O)[C@@H]1O [ITP]	
	O=C(O)C[C@H](C(=O)O)[C@@H](O)C(=O)O [isocitrate]	Only isocitrate binds to MA4265 under the conditions used.
